Where only a bound is given, the exact number is not on record here.

Take `COc1cc(/C=C/c2cc(/C=C/c3ccc4[nH]ccc4c3)n[nH]2)ccc1OCc1ccccn1`: the melting point – broadly, the temperature of the solid-liquid transition – lay within 96 to 101 °C. For `CC=Cc1cc(C(=O)c2ccccc2F)c(Cl)c(Cl)c1O` the value was 83 to 84 °C; for `O=C1OC(=Nc2ccc(F)cc2F)C2=C1CCCC2`, 81 to 84 °C. With `CCC(O)(Cn1cncn1)C(c1ccc(Cl)cc1)n1cncn1` (stereo unspecified) the figure was 60 to 64 °C; with `CCCc1c(C(C)C)nc(C(C)C)c(C(C)O)c1-c1ccc(F)cc1` (stereo unspecified), 103 to 104 °C; with `Cc1ccc(C(=O)c2ccc(Cc3ccc(NS(C)(=O)=O)cc3C#N)n2C)cc1`, 171 to 172 °C. As for `CC(C)C(Oc1ccccc1)C(=O)OC1CC(O)C=C2C=CC(C)C(CCC3CC(O)CC(=O)O3)C21` (mixture of isomers), the melting point was in the range of 143 to 145 °C. On to `Cc1cc(C#N)ccc1-c1ccc(C=O)cc1`, for which the melting point is 130 °C. For `O=S(=O)(c1ccc(I)cc1)N1CCCC(c2ccc(Cl)c(C(F)(F)F)c2)=N1` the value was 153 to 154 °C; for `O=S1(=O)N=CN(C2CCCCCCC2)c2ccc(Cl)cc21`, 235 to 237 °C. Compound `Nc1nccc(OCC(F)(F)F)c1N` displayed a melting point of 126 to 128 °C. Consider `COC1CCC(C2=C(O)C(=O)c3ccccc3C2=O)CC1` (stereo unspecified), for which the melting point was in the range of 152 to 155 °C. For `C[C@]12C[C@H](c3ccc(OCCCCCS(=O)(=O)CCCc4c(F)c(F)c(F)c(F)c4F)cc3)[C@@H]3c4ccc(O)cc4CC[C@H]3[C@@H]1CC[C@@H]2O` the value was 130 °C; for `CC(CCc1ccccc1)NC1CCC(c2ccc(O)cc2)CC1` (racemic), 44 to 49 °C. `CCOC(=O)c1ccc(-c2coc(-c3ccc(C(F)(F)F)cc3)n2)cc1` returned a melting point of 168 to 170 °C.

The compound `Cc1ccc2cccc(OCc3c(Cl)ccc(N(C)C(=O)CNC(=O)/C=C/c4ccc(NC(=O)c5cnccn5)nc4)c3Cl)c2n1` had a melting point of 220 to 231 °C.

On to `COc1ccc(-n2nc(Sc3ccc(C)cc3)c(C)c(C#N)c2=O)cc1`, for which the melting point was in the range of 148 to 149 °C. Consider `Nc1nnc(-c2ccccc2Nc2cccc(C(F)(F)F)c2)s1`, for which the melting point lay within 122 to 123 °C.

For `COc1c(C)c(C(=O)c2ccc([N+](=O)[O-])cc2)n2ccccc12`, the melting point stood at 151 °C. Take `O=c1oc2ccccc2c(O)c1SCCOc1ccccc1`: the melting point lay within 120 to 121 °C. `Cc1cc([N+](=O)[O-])c(NC(C)C(=O)N(C)OS(C)(=O)=O)c([N+](=O)[O-])c1` (stereo unspecified) came in with a melting point of 145 °C. In the case of `COc1cc(C2C(=O)N(C)Cc3cc4c(cc32)OCCO4)cc(OC)c1OC` (stereo unspecified), the melting point fell in the range of 148 to 149 °C. For `CCN1c2cscc2CN(C)c2ccccc21`, the melting point fell in the range of 135 to 137 °C. `CN(C(=O)c1ccc2nonc2c1)C1CCC(F)(F)CC1` registered a melting point of 137 to 138 °C.

Consider `O=CNC1=NN(c2ccccn2)CC1`, for which the melting point lay in the range of 182 to 183 °C. On to `N#Cc1ccccc1-c1ccc(OCC(=O)C2CC2)cc1`, for which the melting point is 82 to 84 °C. For `COc1nc(Cc2ccccc2[N+](=O)[O-])nc(OC)n1` the value was 91.6 to 92.3 °C; for `Cn1nc(-c2c(Cl)cc(C(F)(F)F)cc2Cl)cc1N`, 161 to 163 °C; for `Cc1c(/C=C2\COc3ccccc3C2=O)ncn1C(c1ccccc1)(c1ccccc1)c1ccccc1`, 231 to 233 °C. Take `Fc1ccc2c(CN3CCN(CCc4ccccc4)CC3)n[nH]c2c1`: the melting point is 148 to 149 °C. `Cn1c(COc2cccc(N)c2)nc2ccccc21` displayed a melting point of 149 to 153 °C.

Compound `COc1ccc(C=CC(=O)c2c(OC)cc(OC)cc2OC(=O)OCc2ccccc2)cc1` gave a melting point of 127 °C. For `COC(=O)c1ccc(-c2nc(-c3ccc(OC)cc3)co2)cc1` the value was 200 to 202 °C; for `CC(=O)Nc1ccc([N+]([O-])=NC#N)cc1`, 240 to 242 °C. On to `COC(=O)C=Cc1ccc(-n2c(C)ccc2C)cc1`, for which the melting point lay in the range of 73 to 75 °C. Compound `CCCCCCN(Cc1ccc2ccccc2c1)c1c(N[C@@H](Cc2ccccc2)C(=O)O)c(=O)c1=O` returned a melting point of 62 to 70 °C. `Cc1cccc(NC(=O)NCC(=O)N(CC(=O)OC(C)(C)C)c2ccccc2C(=O)N2CCCC(C)(C)C2)c1`: the melting point stood at 207 °C.

In turn, `O=C(NCC(F)(F)F)c1cccc(CN2CCN(c3ccc(NC(=O)c4ccccc4-c4ccc(C(F)(F)F)cc4)cc3)CC2)c1` came in with a melting point of 205 to 207 °C. `COC1=Nc2ccc(Cl)cc2N(c2ccccc2)C(=O)C1` showed a melting point of 136 to 138 °C. For `CNC(=O)OCc1c(COC(=O)NC)c(-c2ccc(OC)cc2)n2c1Cc1cc(OC)ccc1-2`, the melting point was in the range of 110 to 112 °C. With `C#CCON=C(CCC)C1=C(O)CC(c2ccc(C(=O)SC)cc2)CC1=O` (stereo unspecified), the melting point lay within 95 to 96 °C.

On to `COCOc1cccc2c1CCC2=O`, for which the melting point was in the range of 51 to 54 °C. Regarding `CCCCN(Cc1ccc(-c2ccccc2C(=N)NO)cc1)c1ncccc1C(=O)OCC`, the melting point was in the range of 181 to 182 °C.

Compound `N#Cc1cc(N)ccc1CN1CCC(N2CCOCC2)CC1` yielded a melting point of 162 to 165 °C. As for `CCCCc1nc2c(C)c(Cl)cc(C(=O)O)c2n1Cc1ccc(C(=O)O)cc1`, the melting point fell in the range of 293 to 294 °C. `CC(C)(C)OC(=O)N[C@@H](CC(=O)OCc1ccccc1)C(=O)NCCc1ccc(C(=O)OCc2ccccc2)cc1` came in with a melting point of 99 to 100 °C. With `N#Cc1c(Br)c(Br)n(C(=O)c2ccc(Cl)cc2)c1Br` the figure was 154 to 157 °C.

Compound `Cc1ccc(-c2cc(-c3ccc(Cl)cc3)n[nH]2)cc1` gave a melting point of 228 °C. With `CCn1cc(C(=O)Nc2nccs2)c2ccc(Cl)cc21`, the melting point is 234 to 236 °C. For `Cc1cccc2c1C(NCCSCc1ccc(CN(C)C)o1)=NS2(=O)=O`, the melting point lay in the range of 90 to 92 °C. For `Cc1cc(-c2ccc(Cl)c(Cl)c2)nc(-n2cnc(-c3cccc(S(C)(=O)=O)c3)c2)n1` the value was 213 °C; for `CC(C)(C)c1nc(CN2C(=O)C3(COc4cc5c(cc43)OCO5)c3ccccc32)no1` (stereo unspecified), 183 to 185 °C.

`COc1cc(F)ccc1-c1ccc(S(=O)(=O)N2c3ccccc3CC2C(=O)NCCOc2ccc(C(=O)O)cc2)cc1` (stereo unspecified) showed a melting point of 102 °C. Regarding `CCCOc1ccccc1-c1nc2nc(SC)nnc2c(=O)[nH]1`, the melting point was in the range of 247 to 249 °C.

Turning to `O=S(=O)(c1nc[nH]n1)C(F)(F)Br`, the melting point lay in the range of 176 to 177 °C. With `CCCc1ncc2cc(OC)nc(SC)n12` the figure was 98 to 100 °C; with `CCCc1cc(Cl)c2oc(Cc3ccc(OCC(=O)O)cc3)c(C)c2c1O`, 179 to 180 °C; with `CCCCNS(=O)(=O)CC(O)C(O)C(CC1CCCCC1)NC(=O)C(CC)Cc1c[nH]cn1` (stereo unspecified), 60 to 90 °C. Regarding `OCCN1CCC(=C2c3sccc3CCn3ncnc32)CC1`, the melting point was determined as 150 °C. With `Oc1ccc(-c2ccc(CCC(O)CCc3cccnc3)cc2)cc1` (stereo unspecified) the figure was 140 to 143 °C; with `O=C(O)CCCCC(O)CCCl` (single isomer, unassigned; (-)), 29 to 30 °C.

The compound `Cc1cc(C)c(-n2nnc3c(-c4ccc(Cl)cc4Cl)nc(C)nc32)c(C)c1` yielded a melting point of 167 to 168 °C. For `Cc1cc(OCCc2nc(-c3ccccc3)oc2C)cc(C)c1CN(O)C(N)=O` the value was 170 to 171 °C; for `CCOc1nn(-c2ccc(C(F)(F)F)cn2)cc1CCCOc1cc(CC(=O)O)n(C)n1`, 151 to 152 °C. The compound `CC(C)(C)c1cc(C(=O)c2ncco2)cc(C(C)(C)C)c1O` gave a melting point of 127 to 130 °C. In turn, `CCOC(=O)C1=C(C)NC(CO)=C(C(=O)OCC)C1c1ccccc1/C=C/C(=O)OC(C)(C)C` (stereo unspecified) had a melting point of 163 to 164 °C. The compound `N#CCc1cc2c(-c3ccccc3)c(CC(=O)Nc3ccc(Cl)cc3C(F)(F)F)c(=O)oc2cc1Cl` yielded a melting point of 247 to 248 °C.

With `CCC(OCCc1c2c3c(c(OCc4ccc(-c5ccccc5)cn4)ccc3n1Cc1ccc(Cl)cc1)SC(C)C2)C(=O)O` (stereo unspecified), the melting point was in the range of 159 to 162 °C.

`Oc1ccc(-c2cc(S)n3nccc3n2)cc1O`: the melting point was above 280 °C. Consider `O=C(Cn1cc(Cl)cn1)c1ccc(Br)s1`, for which the melting point is 127 °C. On to `CCOCc1nc2c(N)nc3cc(OCCCCCCNC(=O)CCS)ccc3c2n1CC(C)(C)NS(C)(=O)=O`, for which the melting point lay in the range of 152 to 157 °C. Regarding `CC1(c2ccccc2)OC(=S)N(Nc2ccccc2)C1=O` (stereo unspecified), the melting point lay in the range of 81 to 85 °C. The compound `CNC(=O)N1CCC(Oc2cccc(C(F)(F)F)c2)(c2ccccc2)CC1` showed a melting point of 124 to 127 °C. Turning to `COc1nc(C)nc(NC(=O)NS(=O)(=O)C(C)S(=O)(=O)N2CCCC2)n1` (stereo unspecified), the melting point lay in the range of 136 to 137 °C. With `Nc1nc(OCc2ccccc2)nc2c1ncn2C1OC(CO)C(O)C1O` (stereo unspecified) the figure was 178 to 179 °C. For `Cc1ccc(-c2nc3ccc(O)cc3n2Cc2ccccc2C(F)(F)F)cc1C` the value was 178 °C; for `COc1ccc(NC(=O)N(C)Cc2cccc3c2C(=O)N(C2CCC(=O)NC2=O)C3=O)cc1` (stereo unspecified), 243 to 245 °C; for `CC(C)c1cccc(C(C)C)c1NC(=O)C1CC2=C(CCCCCCCCCC2)C1=O` (stereo unspecified), 225 to 229 °C.

In turn, `CC(C)C1(C)N=C(c2nc3c(cc2C(=O)O)CCO3)NC1=O` (stereo unspecified) yielded a melting point of 189 to 192 °C. Regarding `CCOC(=O)CNC(=O)[C@@H]1CS[C@H](c2ccccc2O)N1C(=O)CCSC(C)=O`, the melting point is 130 to 131 °C.

In turn, `C#Cc1cn(C2CC(F)C(COC(c3ccccc3)(c3ccccc3)c3ccccc3)O2)c(=O)[nH]c1=O` (stereo unspecified) yielded a melting point of 54 °C.

On to `CCCC[C@@H](C)[C@@H](O)[C@H](NC)C(=O)O`, for which the melting point is 248 to 249 °C.

With `Cc1c(Cl)cccc1N1CCN(CCc2nn(Cc3c[nH]cn3)c3cc4c(cc23)OCO4)CC1`, the melting point lay within 176 to 177 °C. `COc1cc(Nc2nccc(Sc3ccccc3)n2)cc(OC)c1OC`: the melting point is 110 °C. With `Cn1cnc(S(=O)(=O)N2CCSCC2)c1`, the melting point lay within 154 to 155 °C. `CS(=O)(=O)Nc1cccc(Nc2nc(OC3CCCC3)c3cc[nH]c3n2)c1` registered a melting point of 203 to 205 °C.
